Patent publication US8519110B2, “mRNA cap analogs” (Board of Supervisors of Louisiana State University And …, priority 2008, dated 2013)
Where two headings read alike, the source gives them in different places. Values belong to the compound of their own block, whether it stands above or below them.

Key:
[1] = molecular target: cap-dependent translation of luciferase mRNA in reticulocyte lysate; assay: Inhibition of cap-dependent translation in vitro by free cap analogs; type: biochemical, rabbit
Procedure: In vitro translation reactions were performed in 12.5 μl for 60 min at 30° C. under conditions favorable for cap-dependent translation. In some cases, the reaction mixture was incubated for 60 min at 30° C. prior to adding the dinucleotide cap analog (inhibitor) and m2^7,3′-OGppG-capped luciferase mRNA to start translation. In other cases, to analyze biological stability, the cap analog was incubated in the translation mixture for 60 min at 30° C. prior to adding the luciferase mRNA to start translation. A typical reaction mixture contained 56% reticulocyte lysate, the 20 “standard” amino acids (0.01 mM each), MgCl2 (1.2 mM), potassium acetate (170 mM), RiboLock Ribonuclease Inhibitor (0.32 U/μl), cap analog solution ( 1/10 of total reaction volume), and m2^7,3′-OGpppG-capped luciferase RNA. […] Reactions were performed with cap analog concentrations ranging from 0.12 to 100 μM. Luciferase activity was measured in a luminometer. […] The program OriginPro8 (OriginLab) was used for curve fitting with the equation qLUC=Z/(1+I/IC50)+N, where qLUC is the activity of luciferase synthesized in the presence of cap analog, Z is the activity of luciferase synthesized in the absence of cap analog, N is the activity of luciferase synthesized in a cap-independent manner, and I is the cap analog concentration.
Two type of experiments were carried out. In one set of experiments (condition A), a cap analog was added to the translation system together with luciferase mRNA. In the other set of experiments (condition B), the cap analog was incubated in the translation system for 60 min before addition of mRNA. […] There was a correlation between the resistance to hydrolysis by DcpS and the stability of analogs in the translation system.

[2] = test system: rabbit reticulocyte lysate system; assay: In vitro translation efficiency of capped luciferase mRNA with 31-base poly(A) tail, method II transcripts; type: biochemical
Procedure: Capped, polyadenylated luciferase mRNAs were synthesized in vitro by PCR from a dsDNA template that contained the SP6 promoter, the 5′-UTR sequence of rabbit β-globin mRNA, the entire firefly luciferase coding region, and 31 adenosine residues. A typical transcription reaction mixture (40 μl) contained SP6 transcription buffer (Fermentas), 0.7 ug of DNA template, 1 U/μl RiboLock Ribonuclease Inhibitor (Fermentas), 0.5 mM each of ATP, CTP, and UTP, 0.1 mM GTP, and 0.5 mM dinucleotide cap analog. The reaction mixture was incubated at 37° C. for 5 min before addition of SP6 RNA polymerase (Fermentas) to a final concentration of 1 U/μl, and incubation then continued for 45 min at 37° C. The reaction mixture was treated with DNase as in Method I. RNA transcripts were purified with NucAway Spin Columns (Ambion). The integrity of transcripts and quantitation was performed as in Method I.
A micrococcal nuclease-treated rabbit reticulocyte lysate system (Flexi Rabbit Reticulocyte Lysate System, Promega) was used for in vitro translation. Translation reactions were performed in 10 μl for 60 min at 30° C. A typical reaction mixture contained 40% reticulocyte lysate, the 20 “standard” amino acids (0.01 mM each), MgCl2 (1.2 mM), potassium acetate (170 mM), and mRNA (five different concentrations of each transcript, ranging from 0.25 to 4 μg/ml). Luciferase activity was measured in a luminometer (Glomax, Promega). Linear regression was used to fit the data points (luciferase activity versus concentration of mRNA transcript), and translational efficiency was defined as the slope of this line. The relative translational efficiencies of the test mRNAs were compared to that of m^7GpppG-capped luciferase mRNA, the latter being defined as 1.0.

[3] = molecular target: T1, Human DcpS (Homo sapiens, UniProt Q96C86); assay: Assay of susceptibility to DcpS (RP HPLC); type: biochemical; settings: 40 μM cap analog, 30° C., up to 120 min
T1 construct: made in house; host or cells: Escherichia coli
T1 sequence (Q96C86 1-337): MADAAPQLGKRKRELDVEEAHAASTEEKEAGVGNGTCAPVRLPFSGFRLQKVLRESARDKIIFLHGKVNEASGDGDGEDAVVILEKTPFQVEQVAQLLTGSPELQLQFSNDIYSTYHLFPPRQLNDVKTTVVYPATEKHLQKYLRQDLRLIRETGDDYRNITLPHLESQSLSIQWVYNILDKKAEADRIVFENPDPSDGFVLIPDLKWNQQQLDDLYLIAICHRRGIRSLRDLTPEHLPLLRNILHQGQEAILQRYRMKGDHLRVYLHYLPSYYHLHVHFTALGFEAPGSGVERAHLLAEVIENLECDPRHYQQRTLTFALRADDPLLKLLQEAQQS
Procedure: Human DcpS was expressed in Escherichia coli as described in L. Cohen et al., “Nematode m^7GpppG and m3^2,2,7GpppG decapping: activities in Ascaris embryos and characterization of C. elegans scavenger DcpS,” RNA, vol. 10, pp. 1609-1624 (2004). A 15 μM solution of the protein in 20 mM Tris buffer, pH 7.5, containing 50 mM KCl, 0.2 mM EDTA, 1 mM DTT, 0.5 mM PMSF, and 20% glycerol was stored at −80° C. until used. Enzymatic reactions were carried out at 30° C. in 500 μl of 50 mM Tris-HCl, pH 7.9, containing 20 mM MgCl2 and 60 mM (NH4)2SO4. A 40 μM solution of the selected cap analog was treated with 5.0 μl of DcpS for 120 min. At times of 10, 30, 60, and 120 min, a 100-μl sample was collected from the reaction mixture and deactivated by incubation at 90° C. for 2 min. Samples were analyzed without further treatment by analytical RP HPLC with a linear gradient of methanol in 0.1 M KH2PO4, pH 6.0, from 0-50% over 15 min.

[4] = molecular target: T2, eIF4E (Mus musculus, UniProt P63073); assay: Binding affinity of cap analogs to eIF4E by fluorescence titration; settings: equilibrium association constant; 20 °C, pH 7.2, ionic strength 150 mM
T2 sequence (P63073 28-217 limits assumed): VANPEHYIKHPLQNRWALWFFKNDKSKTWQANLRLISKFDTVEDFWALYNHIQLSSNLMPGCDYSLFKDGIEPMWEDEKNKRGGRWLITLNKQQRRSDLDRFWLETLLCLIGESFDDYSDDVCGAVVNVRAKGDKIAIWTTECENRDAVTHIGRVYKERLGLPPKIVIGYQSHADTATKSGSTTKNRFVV
Procedure: Fluorescence titration measurements were carried out on an LS-50B or LS-55 spectrofluorometer (Perkin Elmer Co.) at 20.0±0.2° C. in 50 mM HEPES/KOH (pH 7.2), 0.5 mM EDTA, and 1 mM DTT, with ionic strength adjusted to 150 mM by addition of KCl. Various cap analogue solutions, of increasing concentration, were added in 1 μl aliquots to 1.4 ml of 0.1 or 0.2 μM protein solutions. Fluorescence intensities were measured with excitation at 280 nm or 295 nm with 2.2 nm bandwidth, and detection at 337 nm with 4 nm bandwidth and a 290-nm cut-off filter. The data were corrected for sample dilution and inner filter effects. Equilibrium association constants (Kas) were determined by fitting the theoretical dependence of fluorescence intensity on cap analog concentration to the experimental data, as otherwise described in A. Niedźwiecka et al., “Biophysical studies of eIF4E cap-binding protein: recognition of mRNA 5′ cap structure and synthetic fragments of eIF4G and 4E-BP1 proteins,” J. Mol. Biol., vol. 312, pp. 615-635 (2002). The concentration of protein was allowed to be a free parameter in the equilibrium equation, to determine the amount of “active” protein. The final Kas was calculated as a weighted average of three to ten independent titrations, with the weights taken as the reciprocals of the squares of the numerical standard deviations. Numerical nonlinear least-square regression analysis was performed using ORGIN 6.0 (Microcal Software Inc., USA).
The binding affinities of eukaryotic eIF4E for various cap analogs were determined by fluorescence quenching. This biophysical test allows one to predict the potential efficacy of cap analogs in translation. Those having higher affinities for eIF4E than the unmodified cap analog (m^7GpppG) are expected to be better recognized by the translational machinery, leading to higher translational efficiencies. They also are expected to compete more effectively with unmodified mRNA when free cap dinucleotides are used to inhibit translation. See generally E. Grudzien-Nogalska et al., “Synthesis of anti-reverse cap analogs (ARCAs) and their applications in mRNA translation and stability,” Methods Enzymol., vol. 431, pp. 203-227 (2007).

[5] = Chemical stability in solution and on storage; type: physicochemical
Procedure: FIG. 5 depicts the synthesis of m2^7,2′-OGppSepG. The selenophosphate (PSeO3^−3) was prepared by a modification of the method described in R. Glass et al., “Selenophosphate,” Meth. Enzymol., vol. 252, pp. 309-315 (1995). Trimethylsilyl phosphite was treated with selenium in pyridine to give trimethylsilyl selenophosphate, which was then desilylated by methanol in the presence of triethylamine to give the selenophosphate triethylammonium salt. This compound was coupled with the imidazolide derivative of 7,2′-O-dimethylguanosine 5′-monophosphate (m2^7,2′-OGMP-Im) to give 7,2′-O-dimethylguanosine 5′-O-(2-selenodiphosphate) (m2^7,2′-OGDPβSe). […] The reaction was very rapid; essentially 100% conversion of m2^7,2′-OGMP-Im into m2^7,2′-OGDPβSe was observed by RP HPLC after 15 min. […] Thus, care was taken to maintain the pH at 7 or above during purification of m2^7,2′-OGDPβSe, which allowed the product to be isolated with 80% yield after ion-exchange chromatography. The m2^7,2′-OGDPβSe was then coupled with the imidazolide derivative of GMP in the presence of excess ZnCl2. Two peaks were observed by RP HPLC, corresponding to two m2^7,2′-OGppSepG diastereomers, which were designated D1 and D2 according to their elution order. However, the coupling proceeded slowly, and complete disappearance of m2^7,2′-OGDPβSe took about two days. The extended reaction time allowed partial hydrolysis of m2^7,2′-OGDPβSe to m2^7,2′-OGMP, and only a moderate reaction yield (40% conversion by HPLC, 25% isolated). The diastereomeric mixture of m2^7,2′-OGppSepG after isolation by ion-exchange chromatography was successfully resolved into pure diastereomers by RP HPLC. The products were characterized by mass spectrometry, ^1H NMR, and ^31P NMR to confirm structures and homogeneity.

[6] = molecular target: T2, eIF4E; settings: literature comparison; cited from earlier work
[7] = test system: cultured mammalian cells; settings: compared with ARCA-capped mRNA; cited from earlier work
[8] = molecular target: recombinant human Dcp2 (Homo sapiens, UniProt Q8IU60); settings: mRNAs capped with the analog; cited from earlier work
[9] = test system: cultured mammalian cells; settings: compared with ARCA-capped (m2^7,3′-OGpppG) mRNA; cited from earlier work
[10] = cap analog added together with luciferase mRNA, read-out: Inhibition of in vitro translation (IC50), condition A
[11] = cap analog incubated in translation system 60 min before addition of mRNA, read-out: Inhibition of in vitro translation (IC50), condition B

IC50 [1, 10]: 1.6 ± 0.3 µM | IC50 [1, 11]: 1.3 ± 0.1 µM | Translation efficiency in comparison to m^7GpppG-LUC-(A)31 mRNA, Experiment No. 4 ([2]; experiment 4): 1.65 | Translation efficiency in comparison to m^7GpppG-LUC-(A)31 mRNA, Experiment No. 5 ([2]; experiment 5): 2.17 | Translation efficiency in comparison to m^7GpppG-LUC-(A)31 mRNA, Mean ([2]; mean of experiments): 1.91 | Susceptibility to DcpS [3]: resistant | Cap analog/eIF4E affinity (KAS) [4]: 44 ± 2 μM^−1
Structure (SMILES): [BH3-]P(=O)(OP(=O)(O)OCC1OC(n2cnc3c(=O)[nH]c(N)nc32)C(O)C1O)OP(=O)(O)OCC1OC(n2c[n+](C)c3c(=O)[nH]c(N)nc32)C(O)C1O (single isomer, unassigned) [m^7GppBH3pG (D1), m^7GppBH3pG]

IC50 [1, 10]: 3.1 ± 0.2 µM | IC50 [1, 11]: 16.4 ± 0.8 µM | Susceptibility to DcpS [3]: hydrolyzed | Cap analog/eIF4E affinity (KAS) [4]: 14.4 ± 0.6 μM^−1
Structure (SMILES): [BH3-]P(=O)(OC[C@H]1O[C@@H](n2cnc3c(=O)[nH]c(N)nc32)[C@H](O)[C@@H]1O)OP(=O)(O)OP(=O)(O)OC[C@H]1O[C@@H](n2c[n+](C)c3c(=O)[nH]c(N)nc32)[C@H](O)[C@@H]1O (single isomer, unassigned) [m^7GpppBH3G (D2), m^7GpppBH3G]

Structure (SMILES): COC1C(O)C(COP(=O)([O-])OP(O)(O)=[Se])OC1n1c[n+](C)c2c(=O)[nH]c(N)nc21 (centres unmarked) [m2^7,2′-OGDPβSe, 7,2′-O-dimethylguanosine 5′-O-(2-selenodiphosphate)]
Stability in acidic aqueous solutions ([5]; acidic aqueous solutions, hydrolyzed to m2^7,2′-OGMP): unstable | Stability in neutral or basic solutions ([5]; neutral or basic solutions): only moderately stable

Structure (SMILES): CO[C@H]1[C@@H](O)[C@H](n2c[n+](C)c3c(=O)[nH]c(N)nc32)O[C@@H]1COP(=O)([O-])OP(=O)(O)CP(=O)(O)OC[C@H]1O[C@@H](n2cnc3c(=O)[nH]c(N)nc32)[C@H](O)[C@@H]1O [m2^7,3′-OGppCH2pG]
Binding affinity for eIF4E [6]: lower binding affinity for eIF4E than that of m2^7,3′-OGpppG | Overall translational efficiency of capped mRNA in cells [7]: lower overall translational efficiency | Hydrolysis of capped mRNA by recombinant human Dcp2 in vitro [8]: resistant to hydrolysis | Stability of capped mRNA in cultured cells [9]: more stable than those capped with m2^7,3′-OGpppG
